Results: ChEMBL document CHEMBL2040548, “Anti-influenza virus activities of 4-substituted 2,4-dioxobutanoic acid inhibitors” (Antimicrob Agents Chemother, 1996)

What was measured:
[1] = target: Polymerase acidic protein (Influenza A virus (A/Puerto Rico/8/1934(H1N1)), UniProt P03433); assay: Inhibition of cap 1 ALMV primed Influenza transcriptase
[2] = target: Polymerase acidic protein (Influenza A virus (strain A/Hong Kong/1/1968 H3N2)) (UniProt Q91MA9); assay: Upper respiratory tract challenge; assay type: functional, organism-based; details: Mus musculus

| SMILES | IC50 [1] | Log10 reduction [2] |
| --- | --- | --- |
| O=C(O)/C(O)=C/C(=O)C1(Cc2ccc(Cl)cc2)CCN(Cc2ccc(Cl)cc2)CC1 | 540 nM |  |
| CC(=O)N[C@@H]1[C@@H](NC(=N)N)C=C(C(=O)O)O[C@@]1(C)[C@H](O)[C@H](O)CO |  | 4.3 |
